The results in this text go back to publication PMC8290231 (Cancer Medicine, 2021).

Assay [1] addresses T1, FGFR1 (Homo sapiens, UniProt P11362).
T1 construct: purchased Invitrogen (Waltham, MA, USA)
Put plainly: KINOMEscan binding affinity assay.

Another assay has as its target FGFR4 (Homo sapiens, UniProt P22455). Put plainly: FRET-based Z′-Lyte kinase assay. Type of assay: biochemical.
The test system of assay [2] is FGFR1 signal pathway in Ba/F3‐FGFR1. Put plainly: Western blot of FGFR1 signal pathway. Type of assay: cell-based. The conditions noted are these: Ba/F3‐FGFR1, 4 h, 3.7 nM to 300 nM. Here is the method: (§1) Cells were treated with different concentrations of compound or DMSO for indicated time. Then, cells were lysed with 1 × SDS sample lysis buffer (recommended by CST). […] After blocking with 5% BSA in TBST solution (0.5% Tween‐20) at room temperature for 4 hrs, the membranes were incubated with the corresponding primary antibody (1:2000–1:200) at 4℃ overnight. After washing with TBST for 3–5 times, the HRP‐conjugated secondary antibodies were incubated for 2 hrs. The protein signals were detected with Amersham Imager 600 system (GE, Boston, MA, USA) using an ECL western blotting detection kit (Thermo Fisher Scientific, Waltham, MA, USA).
(§2) Cell lysates were separated by sodium dodecyl sulfate‐polyacrylamide gel electrophoresis (SDS‐PAGE) and analyzed by western blot for phosphorylated FGFR1, FGFR1, phosphorylated FRS2, FRS2, phosphorylated AKT (Ser473), AKT, phosphorylated Erk, and Erk. GAPDH was used as a control
A general note: Immunoblotting shows a protein as a band on a membrane.

In assay [3] the test system is FGFR1 signal pathway in A204. Put plainly: Western blot of FGFR1 signal pathway. It counts as cell-based. On the procedure: as §1, §2
Assay [4] relates to FGFR1 signal pathway in H1581. Put plainly: Western blot of FGFR1 signal pathway. It counts as cell-based. Here is the method: as §1, §2
For assay [5], the system named is FGFR1 signal pathway in A549. Put plainly: Western blot of FGFR1 signal pathway. Type of assay: cell-based. Here is the method:
as §1, §2

The subject of another assay is FGFR1‐V561F. Put plainly: Cellular thermal shift assay (CETSA) in Ba/F3‐FGFR1‐V561F cells. It counts as binding. The settings on record: 100 nM, 38.0 to 57.8℃.
For a further assay, the system named is A204. Kind of assay: CCK-8 cell proliferation assay. It counts as cell-based. The conditions noted are these: Homo sapiens, A204; FGFR1 amplification; CCK-8, 72 h; read-out: antiproliferative IC50, A204. In general terms: Tetrazolium dyes change colour on reduction, which living cells bring about.
A further assay deals with FGFR3 (Homo sapiens, UniProt P22607). Kind of assay: KINOMEscan binding affinity assay.
Assay [6] concerns Ba/F3 stable cells (FGFR1‐V561F/M and other mutant). Kind of assay: CCK-8 proliferation, Ba/F3 stable cells with FGFR1 and mutants (summary). It counts as cell-based. The settings on record: Mus musculus, BaF3; range over Ba/F3 stable cells. On the procedure: The Ba/F3 cell lines stably expressing FGFR1, FGFR1‐V561M, FGFR1‐V561F, FGFR1‐K656N, and FGFR1‐K656E were self‐established through electroporation pCDNA3.1‐TEL plasmids using the Amaxa Cell Line Nucleofector Kit V (Lonza, Cologne, Germany). Stable cell lines were selected by G418 (Merck, USA) and then withdrawal of IL‐3 (R&D). […] Parental Ba/F3 cells were maintained in RPMI 1640 supplemented with 10% FBS, 100 U/ml of penicillin, […] of streptomycin, and 10 ng/ml of IL‐3, while all Ba/F3 stable cell lines were cultured in the same medium without IL‐3.
Cells were seeded in 96‐well plate in complete medium (1000–6000 cells/well) and cultured for overnight. Then the cells were exposed to gradient concentrations (0.0005–10 μM) of compounds. Cell proliferation was analyzed by Cell Counting Kit 8 (CK04, Dojindo Laboratories, Japan) after co‐incubation for a further 72 h. IC50 values were calculated by fitting of concentration–response curves using GraphPad Prism 8.01 software. Each assay was repeated at least three times.
There is, however, no commercially available FGFR1 mutant kinase to validate this. Therefore, we constructed Ba/F3 model cells stably expressing FGFR1‐WT, K656E, K656N, V561M, and V561F mutations.

For assay [7], the target named is T1, FGFR1. Put plainly: FRET-based Z′-Lyte kinase assay. It counts as biochemical. On the procedure:
FGFR1 and the Z′‐Lyte kinase assay kit were purchased from Invitrogen (Waltham, MA, USA) and the assays were performed according to the manufacturer's instructions as described previously.[27]

Another assay has as its system Ba/F3‐FGFR1. Put plainly: Apoptosis assay by flow cytometry (Annexin V / 7-AAD). It counts as cell-based. The conditions noted are these: Ba/F3‐FGFR1, 100 nM, 48 h. On the procedure: After incubation, cells were collected and washed twice with pre‐cold PBS. About 6 × 10^5 cells were resuspended in 100 μl of 1× BD binding buffer solution (#556454, BD), and then stained with 7‐ADD (#559925, BD) and Annexin V‐PE (#556422, BD) in the dark for 15 min. Finally, 400 μl of 1×BD binding buffer solution were added to stop dyeing. The cells were then measured on a Guava easyCyte flow cytometer (Merck, USA).
A general note: In flow cytometry, cells or beads pass a laser one at a time.

Assay [8] concerns FGFR1 in all Ba/F3 stable cells. Kind of assay: Western blot of total FGFR1 protein. It counts as cell-based. The settings on record: 4 h. On the procedure:
as §1
However, its effects on FGFR1 downstream signal pathway in A549 cells were very weak as a negative control.

Assay [9] deals with FGFR1 signal pathway in Ba/F3‐FGFR1‐V561M. Put plainly: Western blot of FGFR1 signal pathway. The conditions noted are these: 300 nM. Type of assay: cell-based. On the procedure: as §1, §2
A further assay relates to A549. Put plainly: CCK-8 cell proliferation assay. The settings on record: Homo sapiens, A549, 72 h, negative control; CCK-8, 72 h; read-out: antiproliferative IC50, A549. Type of assay: cell-based.

T1 sequence (P11362 22-822): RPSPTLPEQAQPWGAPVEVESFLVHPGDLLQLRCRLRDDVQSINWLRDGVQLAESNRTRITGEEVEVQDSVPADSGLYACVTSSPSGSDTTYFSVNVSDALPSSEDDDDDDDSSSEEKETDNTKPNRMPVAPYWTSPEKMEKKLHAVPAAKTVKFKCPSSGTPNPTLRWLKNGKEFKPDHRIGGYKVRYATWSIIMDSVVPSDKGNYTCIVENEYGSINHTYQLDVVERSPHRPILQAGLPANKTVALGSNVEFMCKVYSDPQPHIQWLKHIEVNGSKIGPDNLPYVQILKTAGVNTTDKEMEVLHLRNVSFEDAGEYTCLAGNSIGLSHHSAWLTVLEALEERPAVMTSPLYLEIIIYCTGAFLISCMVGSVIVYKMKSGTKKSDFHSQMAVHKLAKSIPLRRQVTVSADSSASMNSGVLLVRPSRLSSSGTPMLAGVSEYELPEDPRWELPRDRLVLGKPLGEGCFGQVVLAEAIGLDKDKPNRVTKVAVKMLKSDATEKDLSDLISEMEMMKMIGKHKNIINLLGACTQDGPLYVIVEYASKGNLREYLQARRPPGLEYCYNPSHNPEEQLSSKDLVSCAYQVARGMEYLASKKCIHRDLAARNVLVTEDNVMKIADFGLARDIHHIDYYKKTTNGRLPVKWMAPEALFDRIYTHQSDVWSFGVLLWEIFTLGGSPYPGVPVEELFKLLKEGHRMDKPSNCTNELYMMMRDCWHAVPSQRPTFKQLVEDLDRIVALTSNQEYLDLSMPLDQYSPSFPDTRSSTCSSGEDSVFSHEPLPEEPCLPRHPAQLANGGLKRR
Sequence of FGFR4 (P22455 22-802): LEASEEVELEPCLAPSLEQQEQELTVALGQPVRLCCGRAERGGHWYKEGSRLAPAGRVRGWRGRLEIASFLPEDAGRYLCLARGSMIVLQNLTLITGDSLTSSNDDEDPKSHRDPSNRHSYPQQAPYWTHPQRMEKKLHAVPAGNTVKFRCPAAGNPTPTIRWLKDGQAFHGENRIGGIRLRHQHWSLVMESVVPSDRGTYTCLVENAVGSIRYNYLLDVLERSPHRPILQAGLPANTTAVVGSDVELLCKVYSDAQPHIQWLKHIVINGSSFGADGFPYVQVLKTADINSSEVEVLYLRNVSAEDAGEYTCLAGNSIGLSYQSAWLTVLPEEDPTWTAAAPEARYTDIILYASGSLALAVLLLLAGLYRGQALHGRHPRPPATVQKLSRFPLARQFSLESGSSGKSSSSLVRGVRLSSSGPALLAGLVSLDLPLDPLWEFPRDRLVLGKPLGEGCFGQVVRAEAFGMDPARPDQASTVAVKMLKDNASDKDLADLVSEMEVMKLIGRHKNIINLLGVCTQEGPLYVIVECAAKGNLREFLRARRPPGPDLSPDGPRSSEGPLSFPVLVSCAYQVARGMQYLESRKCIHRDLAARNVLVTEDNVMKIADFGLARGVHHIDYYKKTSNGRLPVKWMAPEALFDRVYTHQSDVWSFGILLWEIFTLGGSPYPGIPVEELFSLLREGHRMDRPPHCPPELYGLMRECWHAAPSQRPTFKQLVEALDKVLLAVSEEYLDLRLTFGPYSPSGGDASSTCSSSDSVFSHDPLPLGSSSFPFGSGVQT
Sequence of FGFR3 (P22607 23-806): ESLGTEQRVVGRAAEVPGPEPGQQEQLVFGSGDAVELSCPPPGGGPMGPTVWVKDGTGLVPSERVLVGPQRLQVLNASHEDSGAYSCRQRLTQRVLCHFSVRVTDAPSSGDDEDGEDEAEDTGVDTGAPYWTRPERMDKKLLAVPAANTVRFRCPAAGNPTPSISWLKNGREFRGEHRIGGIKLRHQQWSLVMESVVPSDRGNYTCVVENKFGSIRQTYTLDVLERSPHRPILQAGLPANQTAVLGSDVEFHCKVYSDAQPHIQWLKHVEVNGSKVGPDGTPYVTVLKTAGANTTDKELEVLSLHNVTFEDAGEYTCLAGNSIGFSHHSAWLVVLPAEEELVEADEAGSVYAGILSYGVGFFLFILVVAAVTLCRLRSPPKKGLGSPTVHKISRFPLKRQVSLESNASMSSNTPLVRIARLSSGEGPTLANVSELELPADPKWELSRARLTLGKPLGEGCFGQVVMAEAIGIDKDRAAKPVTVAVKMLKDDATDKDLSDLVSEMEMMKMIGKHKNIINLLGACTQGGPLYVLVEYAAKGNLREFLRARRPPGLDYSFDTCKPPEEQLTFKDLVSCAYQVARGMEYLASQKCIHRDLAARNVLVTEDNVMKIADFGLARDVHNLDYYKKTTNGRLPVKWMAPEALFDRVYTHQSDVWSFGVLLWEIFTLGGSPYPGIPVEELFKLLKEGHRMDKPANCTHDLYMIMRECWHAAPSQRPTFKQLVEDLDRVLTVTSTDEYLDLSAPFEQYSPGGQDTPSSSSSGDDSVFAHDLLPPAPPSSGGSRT

A word on the Kd: it is the concentration at which binding is half-saturated. Low readings indicate a tighter complex, high ones a looser complex. Broadly, the IC50 is the concentration that gives 50% inhibition. In general, EC50 refers to the concentration giving half of the maximal effect. High values mean weaker potency, low ones greater potency. Turning to `Cc1ccc(C(=O)Nc2ccc(CN3CCN(C)CC3)c(C(F)(F)F)c2)cc1C#Cc1cnc2[nH]ncc2c1` [GZD824], the figures for the Kd at FGFR1 [1] and at FGFR3 were 7.3 ± 0.3 nM and 17 ± 1.4 nM, respectively. Besides, the concentration for half-maximal inhibition (IC50) on FGFR4 is 30.3 ± 21.7 nM; in the assay with A204, 0.0244 ± 0.0062 µM; in [6], 0.0081 to 0.055 µM; against FGFR1 [7], 4.14 ± 0.96 nM. In addition, the “FGFR1 phosphorylation, downstream FRS2 and ERK1/2” value is “dose‐dependent inhibition” in assay [2] and “dose‐dependent inhibition” in assay [4] (H1581, 4 h, 3.7 nM to 300 nM). Further, the “dose with obvious inhibition of pFRS2 and pERK” value in [3] (A204) and in [4] (H1581) was no less than 3.7 nM each time. For the same compound, the “total level of FGFR1 protein expression” value in assay [3] (A204), in [4] (H1581) and in assay [5] (A549) was “no obvious effect” each time. For the same compound, the “effect on pAKT” value in assay [3] (A204, even at 300 nM) was “no effect”; in assay [4] (H1581, even at 300 nM), “no effect”. The “effects on FGFR1 downstream signal pathway” value in assay [5] (A549, negative control) is “very weak”. In addition, the “thermal stability of FGFR1‐V561F protein (CETSA)” value with FGFR1‐V561F was “significantly enhanced”. Besides, at FGFR1 [7] (Figure 1B curve fit), the 50% effective concentration (EC50) turned out to be 0.00482 µM. The apoptosis in the assay on Ba/F3‐FGFR1 was determined as 65.73%. Besides, the “dose showing obvious degradation of FGFR1” value in [8] is listed as no less than 33.3 nM.

For `CCN1CCN(c2ccc(Nc3cc(N(C)C(=O)Nc4c(Cl)c(OC)cc(OC)c4Cl)ncn3)cc2)CC1` [BGJ398], the “activation of FGFR1 and its signal pathway” value in [9] was “no effects”. Moreover, in the assay on A549, the IC50 was found to be 8.73 ± 1.93 µM.
